Test results published in patent publication US20110201818A1, “POLO-LIKE KINASE INHIBITORS” (TAKEDA PHARMACEUTICAL COMPANY LIMITED, priority 2007, published 2011).

Biological target: T1, human PLK1 (Homo sapiens, UniProt P53350)
T1 construct: FLAG (DYKDDDDK) (N); made in house; host or cells: Sf21 insect cells, recombinant baculovirus (pFASTBAC1, Bac-to-Bac)
Assay: PLK1 in vitro enzymatic activity assay (phosphorylation of alpha casein by recombinant PLK1)
Assay type: biochemical
Conditions: recombinant FLAG-tagged PLK1, alpha casein substrate, 500 nmol/L ATP, 40 min at room temperature; read-out: pIC50 (PLK1) (converted)
Procedure, shortened: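 Recombinant PLK1 from baculovirus-infected Sf21 cells (50 ng) phosphorylated 3 μg alpha casein for 40 min at room temperature in HEPES pH 7.5, Mg acetate, DTT buffer with 500 nmol/L ATP plus [γ-32P]ATP. TCA-precipitated phosphoprotein was filter-captured, washed, and counted by scintillation.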

T1 sequence (P53350 with tags, fused parts or gaps): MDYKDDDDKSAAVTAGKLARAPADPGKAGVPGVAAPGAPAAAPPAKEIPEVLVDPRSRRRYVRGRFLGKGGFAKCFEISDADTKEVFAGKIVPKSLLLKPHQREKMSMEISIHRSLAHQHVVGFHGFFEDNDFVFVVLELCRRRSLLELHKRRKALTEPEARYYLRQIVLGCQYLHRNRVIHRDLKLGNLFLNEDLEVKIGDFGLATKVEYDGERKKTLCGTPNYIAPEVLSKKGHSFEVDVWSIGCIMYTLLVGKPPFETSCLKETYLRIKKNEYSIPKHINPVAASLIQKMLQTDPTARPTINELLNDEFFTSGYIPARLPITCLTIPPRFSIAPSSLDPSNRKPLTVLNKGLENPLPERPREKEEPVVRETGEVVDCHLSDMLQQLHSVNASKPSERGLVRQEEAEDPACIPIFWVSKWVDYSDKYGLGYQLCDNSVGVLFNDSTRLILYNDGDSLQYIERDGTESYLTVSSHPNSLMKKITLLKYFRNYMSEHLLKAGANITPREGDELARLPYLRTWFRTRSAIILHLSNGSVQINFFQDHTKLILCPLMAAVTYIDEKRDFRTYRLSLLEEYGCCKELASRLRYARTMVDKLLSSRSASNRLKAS

Row | Compound | IC50
1 | C=CC1(F)CN(C2CCCC2)c2nc(Nc3ccc(C(=O)NC4CN(C)C4)cc3OC)ncc2N(C)C1=O (centres unmarked) [Compound 100, 4-(9-cyclopentyl-7-fluoro-5-methyl-6-oxo-7-vinyl-6,7,8,9-tetrahydro-5H-pyrimido[4,5-b][1,4]diazepin-2-ylamino)-3-methoxy-N-(1-methylazetidin-3-yl)benzamide] | ≤ 2 nM
2 | C=C[C@@]1(F)CN(C2CCCC2)c2nc(Nc3ccc(C(=O)NC4CCN(CC)CC4)cc3OC)ncc2N(C)C1=O [Compound 105, (R)-4-(9-cyclopentyl-7-fluoro-5-methyl-6-oxo-7-vinyl-6,7,8,9-tetrahydro-5H-pyrimido[4,5-b][1,4]diazepin-2-ylamino)-N-(1-ethylpiperidin-4-yl)-3-methoxybenzamide] | ≤ 2 nM
3 | C=C[C@@]1(F)CN(C2CCCC2)c2nc(Nc3ccc(C(=O)NC4CCN(CCO)CC4)cc3OC)ncc2N(C)C1=O [Compound 106, (R)-4-(9-cyclopentyl-7-fluoro-5-methyl-6-oxo-7-vinyl-6,7,8,9-tetrahydro-5H-pyrimido[4,5-b][1,4]diazepin-2-ylamino)-N-(1-(2-hydroxyethyl)piperidin-4-yl)-3-methoxybenzamide] | > 2 nM
4 | C=C[C@@]1(F)CN(C2CCCC2)c2nc(Nc3ccc(C(=O)N[C@@H]4CCCNC4)cc3OC)ncc2N(C)C1=O [Compound 107, 4-((R)-9-cyclopentyl-7-fluoro-5-methyl-6-oxo-7-vinyl-6,7,8,9-tetrahydro-5H-pyrimido[4,5-b][1,4]diazepin-2-ylamino)-3-methoxy-N—((R)-piperidin-3-yl)benzamide] | > 2 nM
5 | C=C[C@@]1(F)CN(C2CCCC2)c2nc(Nc3ccc(C(=O)NC4CCN(CCOP(=O)(O)O)CC4)cc3OC)ncc2N(C)C1=O [Compound 111, (R)-2-(4-(4-(9-cyclopentyl-7-fluoro-5-methyl-6-oxo-7-vinyl-6,7,8,9-tetrahydro-5H-pyrimido[4,5-b][1,4]diazepin-2-ylamino)-3-methoxybenzamido)piperidin-1-yl)ethyl dihydrogen phosphate] | ≤ 2 nM
6 | C=C[C@@]1(F)CN(C2CCCC2)c2nc(Nc3cc(F)c(C(=O)NC4CCN(C)CC4)cc3OC)ncc2N(C)C1=O [Compound 113, (R)-4-(9-cyclopentyl-7-fluoro-5-methyl-6-oxo-7-vinyl-6,7,8,9-tetrahydro-5H-pyrimido[4,5-b][1,4]diazepin-2-ylamino)-2-fluoro-5-methoxy-N-(1-methylpiperidin-4-yl)benzamide] | ≤ 2 nM
7 | COc1cc(C(=O)NC2CCN(CC(N)=O)CC2)ccc1Nc1ncc2c(n1)N(C1CCCC1)CC(F)(F)C(=O)N2C [Compound 114] | > 2 nM
8 | COc1cc(C(=O)NC2CCN(CC(=O)N(C)C)CC2)ccc1Nc1ncc2c(n1)N(C1CCCC1)CC(F)(F)C(=O)N2C [Compound 115, 4-(9-cyclopentyl-7,7-difluoro-5-methyl-6-oxo-6,7,8,9-tetrahydro-5H-pyrimido[4,5-b][1,4]diazepin-2-ylamino)-N-(1-(2-(dimethylamino)-2-oxoethyl)piperidin-4-yl)-3-methoxybenzamide] | > 2 nM
9 | COc1cc(C(=O)NC2CCN(CCO)CC2)c(F)cc1Nc1ncc2c(n1)N(C1CCCC1)CC(F)(F)C(=O)N2C [Compound 117, 4-(9-Cyclopentyl-7,7-difluoro-5-methyl-6-oxo-6,7,8,9-tetrahydro-5H-pyrimido[4,5-b][1,4]diazepin-2-ylamino)-2-fluoro-N-(1-(2-hydroxyethyl)piperidin-4-yl)-5-methoxybenzamide] | ≤ 2 nM
10 | COc1cc(C(=O)NC2CCN(C(=O)CN(C)C)CC2)c(F)cc1Nc1ncc2c(n1)N(C1CCCC1)CC(F)(F)C(=O)N2C [Compound 118, 4-(9-Cyclopentyl-7,7-difluoro-5-methyl-6-oxo-6,7,8,9-tetrahydro-5H-pyrimido[4,5-b][1,4]diazepin-2-ylamino)-N-(1-(2-(dimethylamino)acetyl)piperidin-4-yl)-2-fluoro-5-methoxybenzamide] | > 2 nM
11 | COc1cc(C(=O)N[C@@H]2CCCNC2)c(F)cc1Nc1ncc2c(n1)N(C1CCCC1)CC(F)(F)C(=O)N2C [Compound 119, (R)-4-(9-cyclopentyl-7,7-difluoro-5-methyl-6-oxo-6,7,8,9-tetrahydro-5H-pyrimido[4,5-b][1,4]diazepin-2-ylamino)-2-fluoro-5-methoxy-N-(piperidin-3-yl)benzamide] | > 2 nM
12 | COc1ccc(F)cc1Nc1ncc2c(n1)N(C1CCCC1)CC(F)(F)C(=O)N2C [Compound 120, 9-Cyclopentyl-7,7-difluoro-2-(5-fluoro-2-methoxyphenylamino)-5-methyl-8,9-dihydro-5H-pyrimido[4,5-b][1,4]diazepin-6(7H)-one] | > 2 nM
13 | COc1c(Nc2ncc3c(n2)N(C2CCCC2)CC(F)(F)C(=O)N3C)ccc(C(=O)O)c1F [Compound 123, 4-(9-Cyclopentyl-7,7-difluoro-5-methyl-6-oxo-6,7,8,9-tetrahydro-5H-pyrimido[4,5-b][1,4]diazepin-2-ylamino)-2-fluoro-3-methoxybenzoic acid] | > 2 nM
14 | COc1cc(C(=O)NC2CN(C(C)C)C2)ccc1Nc1ncc2c(n1)N(C1CCCCC1)CC(F)(F)C(=O)N2C [Compound 125, 4-(9-cyclohexyl-7,7-difluoro-5-methyl-6-oxo-6,7,8,9-tetrahydro-5H-pyrimido[4,5-b][1,4]diazepin-2-ylamino)-N-(1-isopropylazetidin-3-yl)-3-methoxybenzamide] | ≤ 2 nM
15 | CCN1CC(NC(=O)c2ccc(Nc3ncc4c(n3)N(C3CCCCC3)CC(F)(F)C(=O)N4C)c(OC)c2)C1 [Compound 126, 4-(9-cyclohexyl-7,7-difluoro-5-methyl-6-oxo-6,7,8,9-tetrahydro-5H-pyrimido[4,5-b][1,4]diazepin-2-ylamino)-N-(1-ethylazetidin-3-yl)-3-methoxybenzamide] | > 2 nM
16 | CCN1CC(NC(=O)c2ccc(Nc3ncc4c(n3)N(C3CCCC3)CC(F)(F)C(=O)N4C)c(OC)c2)C1 [Compound 128, 4-(9-cyclopentyl-7,7-difluoro-5-methyl-6-oxo-6,7,8,9-tetrahydro-5H-pyrimido[4,5-b][1,4]diazepin-2-ylamino)-N-(1-ethylazetidin-3-yl)-3-methoxybenzamide] | ≤ 2 nM
17 | COc1cc(C(=O)NC2CN(C(C)C)C2)ccc1Nc1ncc2c(n1)N(C1CCCC1)CC(F)(F)C(=O)N2C [Compound 129, 4-(9-cyclopentyl-7,7-difluoro-5-methyl-6-oxo-6,7,8,9-tetrahydro-5H-pyrimido[4,5-b][1,4]diazepin-2-ylamino)-N-(1-isopropylazetidin-3-yl)-3-methoxybenzamide] | ≤ 2 nM
18 | COc1cc(C(=O)NC2CNC2)c(F)cc1Nc1ncc2c(n1)N(C1CCCC1)CC(F)(F)C(=O)N2C [Compound 130, N-(azetidin-3-yl)-4-(9-cyclopentyl-7,7-difluoro-5-methyl-6-oxo-6,7,8,9-tetrahydro-5H-pyrimido[4,5-b][1,4]diazepin-2-ylamino)-2-fluoro-5-methoxybenzamide] | ≤ 2 nM
19 | CCN1CC(NC(=O)c2cc(OC)c(Nc3ncc4c(n3)N(C3CCCC3)CC(F)(F)C(=O)N4C)cc2F)C1 [Compound 131, 4-(9-cyclopentyl-7,7-difluoro-5-methyl-6-oxo-6,7,8,9-tetrahydro-5H-pyrimido[4,5-b][1,4]diazepin-2-ylamino)-N-(1-ethylazetidin-3-yl)-2-fluoro-5-methoxybenzamide] | ≤ 2 nM
20 | COc1cc(C(=O)NC2CN(C(C)C)C2)c(F)cc1Nc1ncc2c(n1)N(C1CCCC1)CC(F)(F)C(=O)N2C [Compound 132, 4-(9-cyclopentyl-7,7-difluoro-5-methyl-6-oxo-6,7,8,9-tetrahydro-5H-pyrimido[4,5-b][1,4]diazepin-2-ylamino)-2-fluoro-N-(1-isopropylazetidin-3-yl)-5-methoxybenzamide] | ≤ 2 nM
21 | COc1cc(C(=O)NC2CN(C3CCCC3)C2)c(F)cc1Nc1ncc2c(n1)N(C1CCCC1)CC(F)(F)C(=O)N2C [Compound 133, 4-(9-cyclopentyl-7,7-difluoro-5-methyl-6-oxo-6,7,8,9-tetrahydro-5H-pyrimido[4,5-b][1,4]diazepin-2-ylamino)-N-(1-cyclopentylazetidin-3-yl)-2-fluoro-5-methoxybenzamide] | ≤ 2 nM
22 | COc1cc(C(=O)N2CCN(CC3CC3)CC2)ccc1Nc1ncc2c(n1)N(C1CCCC1)CC(F)(F)C(=O)N2C [Compound 134, 9-cyclopentyl-2-(4-(4-(cyclopropylmethyl)piperazine-1-carbonyl)-2-methoxyphenylamino)-7,7-difluoro-5-methyl-8,9-dihydro-5H-pyrimido[4,5-b][1,4]diazepin-6(7H)-one] | > 2 nM
23 | COc1cc(C(=O)N2CCN(CC3CC3)CC2)c(F)cc1Nc1ncc2c(n1)N(C1CCCC1)CC(F)(F)C(=O)N2C [Compound 135, 9-cyclopentyl-2-(4-(4-(cyclopropylmethyl)piperazine-1-carbonyl)-5-fluoro-2-methoxyphenylamino)-7,7-difluoro-5-methyl-8,9-dihydro-5H-pyrimido[4,5-b][1,4]diazepin-6(7H)-one] | > 2 nM
24 | CN1C(=O)C(F)(F)CN(C2CCCC2)c2nc(Nc3cccc4c3OC(F)(F)O4)ncc21 [Compound 136, 9-cyclopentyl-2-(2,2-difluorobenzo[d][1,3]dioxol-4-ylamino)-7,7-difluoro-5-methyl-8,9-dihydro-5H-pyrimido[4,5-b][1,4]diazepin-6(7H)-one] | > 2 nM
25 | COc1cc(CO)ccc1Nc1ncc2c(n1)N(C1CCCC1)CC(F)(F)CN2C [Compound 137, (4-(9-cyclopentyl-7,7-difluoro-5-methyl-6,7,8,9-tetrahydro-5H-pyrimido[4,5-b][1,4]diazepin-2-ylamino)-3-methoxyphenyl)methanol] | > 2 nM
26 | COc1cc(C(=O)NC2CCN(C)CC2)ccc1Nc1ncc2c(n1)N(C1CCCC1)CC(F)(F)CN2C [Compound 138, 4-(9-cyclopentyl-7,7-difluoro-5-methyl-6,7,8,9-tetrahydro-5H-pyrimido[4,5-b][1,4]diazepin-2-ylamino)-3-methoxy-N-(1-methylpiperidin-4-yl)benzamide] | > 2 nM
